Laboratory results from patent publication EP3720857B1, “2-OXO-5H-CHROMENO[4,3-B]PYRIDINES FOR USE IN THE TREATMENT OF HEPATITIS B” (Galapagos NV, priority 2017, dated 2019).
pIC50: −log10 of the molar value.

System: hepatitis virus B (HBV) infection
Assay: HepG2 NTCP assay (HBcAg staining as marker of HBV infection)
Assay type: cell-based
Details: HepG2-NTCP cells infected with HBV, HBV core antigen (HBcAg) as marker of infection
Source text: The principle of the hepG2-NTCP assay is to measure the effect of a test compound on the inhibition of the hepatitis virus B (HBV) infection compared to a reference compound. To be able to infect the hepatocellular carcinoma cells (HepG2) with HBV, HepG2 cells were stably transfected with the Na+-taurocholate co-transporting polypeptide (NTCP) receptor, also referred to as Sodium/bile acid cotransporter (SLC10A1), which is necessary for HBV infection. In this assay the HBV core antigen (HBcAg) is used as a marker of HBV infection. Nuclei count is used as an indication for compound toxicity.
On day one, HepG2-NTCP cells ((Ni et al., 2014)) are seeded at 5000 cells in 50 µL per well in assay medium (DMEM high glucose supplemented with 10% non-heat inactivated (non HI) fetal bovine serum (FBS), 1% P/S, 1% L-glutamine and 1% MEM NEAA) in 384 well plate and incubated at 37°C, 5% CO2 overnight.
Compounds are prepared as 10 point serial dilutions using 1/3 dilution steps in 100% DMSO starting from 10 mM highest concentration, unless otherwise requested for very potent compounds, which started from 5mM or 1mM stock. Compounds are further diluted 1/500 in assay medium.
A negative control (vehicle: 24 wells with 0.2% DMSO) and positive control (24 wells with 100nM Myrcludex B (Cas no.: 406461-66-3), 0.2% DMSO and in 10 point DR) are included in the experiments.
On the second day, 40µl medium is removed from the cells with the plate washer (Select 405 microplate washer, Biotek). 15 µL of diluted compound series is transferred to the assay plate and cells are infected with 15 µL of HBV mix (HBV virus, 4%PEG, 1%DMSO in assay medium). The infection is performed in assay medium containing final concentration of 1% DMSO. The assay plate is incubated at 37°C, 5% CO2 overnight.
The next day, 30µl compound and HBV mix are removed from the assay plate with the plate washer and 30 µL of compound series diluted 1/500 in assay medium containing final concentration of 2.5% DMSO is added to the cell assay plate. The assay plate is incubated at 37°C, 5% CO2 for 5 days.
After 5 days of incubation, supernatant is removed from the cells with the plate washer. Cells are fixed with 50 µL of 3.7% formaldehyde added with the Well mate (Matrix technologies) and incubated for 30 min at room temperature. After fixation, cells are washed four times with phosphate buffer saline (1xPBS, 137mM NaCl, 10mM na2HPO4, 2.7mM KCl, 1.8mM KH2PO4 at pH7.4). The cells are finally subjected to HBc staining.
First, the assay plate is blocked with blocking buffer (2%FBS, 3% BSA, 0.2% TritonX100 in PBS) for 1 h at room temperature (optional to block overnight at 4°C).
After 4 washes of PBST (1XPBS + 0.05% Tween) with the plate washer, the assay plate is incubated with 30 µL diluted primary antibody (1/700 Rabbit anti-HBV core antigen, Dako, B0586 or 1/350 Rabbit anti HBV core antigen, Invitrogen, PA516368) in blocking buffer and incubated for 90 min at room temperature.
After 4 washes of PBST with the plate washer, the assay plate is incubated with 50 µL of secondary antibody (Donkey-anti-rabbit Alexa 488 antibody, Lifetechnologies A21206) 1/500 diluted in blocking buffer and incubated for 60 min at room temperature and in the dark.
The assay plate is washed 4 times with PBST on the plate washer and incubated with 50µL of DAPI (Sigma D9542, stock 5mg/mL) 1/10000 diluted in PBS for 15-30 min at room temperature and in the dark. The assay plate is now ready for read out on the InCell Analyzer 2200 (GE Healthcare).
Raw data are generated following read-out performed on InCell 2200 and are imported into the galapagos LIMS for automated calculation of percentage inhibition (PIN) and toxicity by nuclei count, using the control wells mentioned above, and creation of Dose Response curves. Table V. Hepg2 NTCP assay activity of illustrative compounds of the invention

In the case of `COCCCOc1cc2c(cc1Cl)-c1c(cc(C(=O)O)c(=O)n1C1CC(F)(F)C1)C(C(C)C)O2` (stereo not drawn) [Compound 23, 9-chloro-1-(3,3-difluorocyclobuty 1)-5-isopropyl-8-(3-methoxypropoxy) -2-oxo-5H-chromeno[4,3-b]pyridine-3-carboxylic acid], the pIC50 was 7.70 to 9.00.
`COCCCOc1cc2c(cc1C#N)-c1c(cc(C(=O)O)c(=O)n1C1CC1)C(C(C)C)O2` (stereo not drawn) [Compound 24, 9-cyano-1-cyclopropyl-5-isopropyl-8-(3-methoxypropoxy) -2-oxo-5H-chromeno[4,3-b]pyridine-3-carboxylic acid] was tested, and the pIC50 was 9.00 to 12.00.
For `COCCOc1cc2c(cc1Cl)-c1c(cc(C(=O)O)c(=O)n1C1CC1)C(C1(C)COC1)O2` (stereo not drawn) [Compound 25, 9-chloro-1-cyclopropyl-8-(2-methoxyethoxy)-5-(3-methyloxetan-3-yl)-2-oxo-5H-chromeno [4,3-b]pyridine-3-carboxylic acid], the pIC50 was 9.00 to 12.00.
For `COCCCOc1cc2c(cc1F)-c1c(cc(C(=O)O)c(=O)n1C1CCC1)C(C1(C)COC1)O2` (stereo not drawn) [Compound 26, 1-cyclobutyl-9-fluoro-8-(3-methoxypropoxy) -5-(3-methyloxetan-3-yl)-2-oxo-5H-chromeno[4,3-b]pyridine-3-carboxylic acid], the pIC50 was 9.00 to 12.00.
For `[2H]C1([2H])C(n2c3c(cc(C(=O)O)c2=O)C(C2(C)COC2)Oc2cc(OCCCOC)c(F)cc2-3)C1([2H])[2H]` (stereo not drawn) [Compound 27, 9-fluoro-8-(3-methoxypropoxy) -5-(3-methyloxetan-3-yl)-2-oxo-1-(2,2,3,3-tetradeuteriocyclopropyl)-5H-chromeno[4,3-b]pyridine-3-carboxylic acid], the pIC50 was 9.00 to 12.00.
Work on `COc1cc2c(cc1OCC1(C)COC1)OC(C(C)C)c1cc(C(=O)O)c(=O)n(C3CC3)c1-2` (stereo not drawn) [Compound 28, 1-cyclopropyl-5-isopropyl-9-methoxy-8-[(3-methyloxetan-3-yl)methoxy]-2-oxo-5H-chromeno[4,3-b]pyridine-3-carboxylic acid] yielded a pIC50 of 7.70 to 9.00.
For `COc1cc2c(cc1OCC1CN(C)C(=O)O1)OC(C(C)C)c1cc(C(=O)O)c(=O)n(C3CC3)c1-2` (stereo not drawn) [Compound 29, 1-cyclopropyl-5-isopropyl-9-methoxy-8-[(3-methyl-2-oxooxazolidin-5-yl)methoxy]-2-oxo-5H-chromeno[4,3-b]pyridine-3-carboxylic acid], the pIC50 was 7.70 to 9.00.
`COc1cc2c(cc1OCCCC#N)OC(C(C)C)c1cc(C(=O)O)c(=O)n(C3CC3)c1-2` (stereo not drawn) [Compound 30, 8-(3-cyanopropoxy)-1-cyclopropyl-5-isopropyl-9-methoxy-2-oxo-5H-chromeno[4,3-b]pyridine-3-carboxylic acid] showed a pIC50 of 7.70 to 9.00.
`COCCOc1cc2c(cc1OC)-c1c(cc(C(=O)O)c(=O)n1C1CC1)C(C(C)C)O2` (stereo not drawn) [Compound 31, 1-cyclopropyl-5-isopropyl-9-methoxy-8-(2-methoxyethoxy)-2-oxo-5H-chromeno[4,3-b]pyridine-3-carboxylic acid] showed a pIC50 of 7.70 to 9.00.
`COc1cc2c(cc1OCC1CN(S(C)(=O)=O)C1)OC(C(C)C)c1cc(C(=O)O)c(=O)n(C3CC3)c1-2` (stereo not drawn) [Compound 32, 1-cyclopropyl-5-isopropyl-9-methoxy-8-[(1-methylsulfonylazetidin-3-yl)methoxy]-2-oxo-5H-chromeno[4,3-b]pyridine-3-carboxylic acid] gave a pIC50 of 7.70 to 9.00.
In the case of `COc1cc2c(cc1OCC1COCCO1)OC(C(C)C)c1cc(C(=O)O)c(=O)n(C3CC3)c1-2` (stereo not drawn) [Compound 33, 1-cyclopropyl-8-(1,4-dioxan-2-ylmethoxy)-5-isopropyl-9-methoxy-2-oxo-5H-chromeno[4,3-b]pyridine-3-carboxylic acid], the pIC50 was 7.70 to 9.00.
With `COc1cc2c(cc1OCC1COC1)OC(C(C)C)c1cc(C(=O)O)c(=O)n(C3CC3)c1-2` (stereo not drawn) [Compound 34, 1-cyclopropyl-5-isopropyl-9-methoxy-8-(oxetan-3-ylmethoxy)-2-oxo-5H-chromeno[4,3-b]pyridine-3-carboxylic acid] the pIC50 was 7.70 to 9.00.
In the case of `COc1cc2c(cc1OCC1CNC(=O)O1)OC(C(C)C)c1cc(C(=O)O)c(=O)n(C3CC3)c1-2` (stereo not drawn) [Compound 35, 1-cyclopropyl-5-isopropyl-9-methoxy-2-oxo-8-[(2-oxooxazolidin-5-yl)methoxy]-5H-chromeno[4,3-b]pyridine-3-carboxylic acid], the pIC50 was 7.00 to 7.70.
In the case of `COc1cc2c(cc1OCCCO)OC(C(C)C)c1cc(C(=O)O)c(=O)n(C3CC3)c1-2` (stereo not drawn) [Compound 36, 1-cyclopropyl-8-(3-hydroxypropoxy) -5-isopropyl-9-methoxy-2-oxo-5H-chromeno[4,3-b]pyridine-3-carboxylic acid], the pIC50 was 7.70 to 9.00.
With `CCOc1cc2c(cc1OC)-c1c(cc(C(=O)O)c(=O)n1C1CC1)C(C(C)C)O2` (stereo not drawn) [Compound 37, 1-cyclopropyl-8-ethoxy-5-isopropyl-9-methoxy-2-oxo-5H-chromeno[4,3-b]pyridine-3-carboxylic acid] the pIC50 was 7.70 to 9.00.
In the case of `COc1cc2c(cc1OCC(C)C)OC(C(C)C)c1cc(C(=O)O)c(=O)n(C3CC3)c1-2` (stereo not drawn) [Compound 38, 1-cyclopropyl-8-isobutoxy-5-isopropyl-9-methoxy-2-oxo-5H-chromeno[4,3-b]pyridine-3-carboxylic acid], the pIC50 was 7.70 to 9.00.
`COc1cc2c(cc1OC(C)C)OC(C(C)C)c1cc(C(=O)O)c(=O)n(C3CC3)c1-2` (stereo not drawn) [Compound 39, 1-cyclopropyl-8-isopropoxy-5-isopropyl-9-methoxy-2-oxo-5H-chromeno[4,3-b]pyridine-3-carboxylic acid] was tested, and the pIC50 was 7.70 to 9.00.
`CCCOc1cc2c(cc1OC)-c1c(cc(C(=O)O)c(=O)n1C1CC1)C(C(C)C)O2` (stereo not drawn) [Compound 40, 1-cyclopropyl-5-isopropyl-9-methoxy-2-oxo-8-propoxy-5H-chromeno[4,3-b]pyridine-3-carboxylic acid] was tested, and the pIC50 was 7.70 to 9.00.
`COc1cc2c(cc1OCc1ccccc1)OC(C(C)C)c1cc(C(=O)O)c(=O)n(C3CC3)c1-2` (stereo not drawn) [Compound 41, 8-benzyloxy-1-cyclopropyl-5-isopropyl-9-methoxy-2-oxo-5H-chromeno[4,3-b]pyridine-3-carboxylic acid] gave a pIC50 of less than 7.00.
`CCOCCOc1cc2c(cc1OC)-c1c(cc(C(=O)O)c(=O)n1C1CC1)C(C(C)C)O2` (stereo not drawn) [Compound 42, 1-cyclopropyl-8-(2-ethoxyethoxy)-5-isopropyl-9-methoxy-2-oxo-5H-chromeno[4,3-b]pyridine-3-carboxylic acid] gave a pIC50 of 7.70 to 9.00.
`COc1cc2c(cc1OCC1(C#N)CCC1)OC(C(C)C)c1cc(C(=O)O)c(=O)n(C3CC3)c1-2` (stereo not drawn) [Compound 43, 8-[(1-cyanocyclobutyl)methoxy]-1-cyclopropyl-5-isopropyl-9-methoxy-2-oxo-5H-chromeno[4,3-b]pyridine-3-carboxylic acid] gave a pIC50 of 7.70 to 9.00.
Compound `COCCCOc1cc2c(cc1F)-c1c(cc(C(=O)O)c(=O)n1C1CC1)[C@@H](C(C)C)O2` [Compound 45, (5R)-1-cyclopropyl-9-fluoro-5-isopropyl-8-(3-methoxypropoxy)-2-oxo-5H-chromeno[4,3-b]pyridine-3-carboxylic acid] has a pIC50 of less than 7.00.
For `COCCCOc1cc2c(cc1Cl)-c1c(cc(C(=O)O)c(=O)n1C1CCC1)C(C1(C)COC1)O2` (stereo not drawn) [Compound 48, 9-chloro-1-cyclobutyl-8-(3-methoxypropoxy) -5-(3-methyloxetan-3-yl)-2-oxo-5H-chromeno[4,3-b]pyridine-3-carboxylic acid], the pIC50 was 9.00 to 12.00.
With `COCCCOc1cc2c(cc1F)-c1c(cc(C(=O)O)c(=O)n1C1CC1)C(C1(C)COC1)O2` (stereo not drawn) [Compound 49, 1-cyclopropyl-9-fluoro-8-(3-methoxypropoxy) -5-(3-methyloxetan-3-yl)-2-oxo-5H-chromeno[4,3-b]pyridine-3-carboxylic acid] the pIC50 was 9.00 to 12.00.
